In publication PMC11885754, “Engineered phenylalanine hydroxylase coupled with an effective cofactor synthesis and regeneration system for high-yield production of 5-hydroxytryptophan” (Bioresources and Bioprocessing, 2025):

Target: T1, XcPAH (Xanthomonas campestris, UniProt Q8PE27)
T1 construct: gene pah; full length 296 aa, synthesized gene in pET30a (BamHI/XhoI) co-expressed with CvPCD and EcFolM in E. coli BL21(DE3)-derived strain TRP1
T1 sequence (Q8PE27 1-296): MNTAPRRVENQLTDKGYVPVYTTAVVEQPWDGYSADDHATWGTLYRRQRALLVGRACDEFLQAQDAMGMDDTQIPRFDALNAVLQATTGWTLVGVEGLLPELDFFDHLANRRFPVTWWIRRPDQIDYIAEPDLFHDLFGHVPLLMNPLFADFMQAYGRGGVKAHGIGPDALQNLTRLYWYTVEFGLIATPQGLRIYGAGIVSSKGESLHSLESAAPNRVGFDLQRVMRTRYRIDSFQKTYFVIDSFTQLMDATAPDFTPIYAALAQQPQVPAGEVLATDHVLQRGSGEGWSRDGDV
Assay: whole-cell conversion of L-Phe to L-Tyr, HPLC
Type: cell-based
Details: E. coli TRP1 cells, 10 mM L-Phe, endogenous MH4 with CvPCD-EcFolM regeneration, 25 °C, 24 h, pH about 7.0

Compound: N[C@@H](Cc1ccccc1)C(=O)O [L-Phe]
- whole-cell conversion of L-Phe to L-Tyr, HPLC: (TRP1-XC1 and TRP1-CT1) were capable of converting L-Phe into L-Tyr
